This experiment relates to P388 leukemia ip, CD2F1 mice, survival T/C. As to the kind of experiment: NCI In Vivo Anticancer Drug Screen. Data for tumor model P388 Leukemia (intraperitoneal) in CD2F1 (CDF1) mice. As to conditions: endpoint: median survival time, higher = longer survival. The method in brief:
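Mice carrying the transplanted tumor received test compound or vehicle. Survival was recorded in each group, and the value is the treated-group measurement divided by that of the vehicle-treated control group.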

The mark [1] stands for this setting: dose: 60.0 mg/kg/injection, schedule: Q01DX005 (ip), vehicle: Klucel (hydroxypropylcellulose) (HPC).
[2] abbreviates: dose: 120.0 mg/kg/injection, schedule: Q01DX005 (ip), vehicle: Klucel (hydroxypropylcellulose) (HPC).
Where [3] appears, read: dose: 240.0 mg/kg/injection, schedule: Q01DX005 (ip), vehicle: Klucel (hydroxypropylcellulose) (HPC).
The mark [4] stands for this setting: dose: 100.0 mg/kg/injection, schedule: Q01DX009 (ip), vehicle: saline with Tween-80.
[5] abbreviates: dose: 200.0 mg/kg/injection, schedule: Q01DX009 (ip), vehicle: saline with Tween-80.
Setting [6] is: dose: 50.0 mg/kg/injection, schedule: Q01DX005 (ip), vehicle: saline with Tween-80.
Setting [7] is: dose: 100.0 mg/kg/injection, schedule: Q01DX005 (ip), vehicle: saline with Tween-80.
[8] abbreviates: dose: 100.0 mg/kg/injection, schedule: Q04DX003 (ip), vehicle: saline with Tween-80.
The mark [9] stands for this setting: dose: 200.0 mg/kg/injection, schedule: Q04DX003 (ip), vehicle: saline with Tween-80.
Setting [10] is: dose: 400.0 mg/kg/injection, schedule: Q04DX003 (ip), vehicle: saline with Tween-80.

From PubChem BioAssay AID330 (DTP/NCI, 2004) come the findings set out here.

“And” between values parts separate entries of the source, which are not always exact repeats. Identical values can stand only once. Toxic doses and inconclusive results are not listed.

Turning to `COc1cc(/C=C/C(C)=N/NC(N)=O)cc(OC)c1OC`, the T/C reads like this: (dose: 30.0 mg/kg/injection, schedule: Q01DX005 (ip), vehicle: Klucel (hydroxypropylcellulose) (HPC)) 103 % of control; under setting [1], 100 % of control; under setting [2], 103 % of control; under setting [3], 104 % of control.
With `O=C1N/C(=N\c2nc3ccccc3s2)c2ccccc21`, the T/C by setting is: (dose: 6.25 mg/kg/injection, schedule: Q01DX009 (ip), vehicle: saline with Tween-80) 88 % of control; (dose: 25.0 mg/kg/injection, schedule: Q01DX009 (ip), vehicle: saline with Tween-80) 91 % of control; under setting [4], 86 % of control; under setting [5], 89 % of control.
Consider `O=C(CN1CCCC1)Nc1nc(-c2ccc(Cl)cc2)cs1`, for which the T/C under setting [6] is 96 % of control; the T/C under setting [7] is 100 % of control; the T/C (dose: 200.0 mg/kg/injection, schedule: Q01DX005 (ip), vehicle: saline with Tween-80) was 91 % of control.
For `CCOC(=O)CCCC(NC(=O)c1ccc(N2CCN(c3c(N)nc(N)nc3NC)CC2)cc1)C(=O)OCC` (stereo unspecified), the T/C under setting [1] was 91 % of control, the T/C under setting [2] is 87 % of control and the T/C under setting [3] was 96 % of control.
Consider `CCOC(=O)/C=C1/SC(N2CCCCC2)C(=O)N1CC` (stereo unspecified), for which the T/C was 106 % of control (dose: 50.0 mg/kg/injection, schedule: Q01DX009 (ip), vehicle: Klucel (hydroxypropylcellulose) (HPC)); 110 % of control (dose: 100.0 mg/kg/injection, schedule: Q01DX009 (ip), vehicle: Klucel (hydroxypropylcellulose) (HPC)); 110 % of control (dose: 200.0 mg/kg/injection, schedule: Q01DX009 (ip), vehicle: Klucel (hydroxypropylcellulose) (HPC)).
With `O=C(Cc1nc2ccccc2n2nnnc12)NCCO`, the T/C (dose: 100.0 mg/kg/injection, schedule: Q04DX002 (ip), vehicle: Klucel + Tween-80) was 99 % of control; the T/C (dose: 200.0 mg/kg/injection, schedule: Q04DX002 (ip), vehicle: Klucel + Tween-80) was 88 % of control; the T/C (dose: 400.0 mg/kg/injection, schedule: Q04DX002 (ip), vehicle: Klucel + Tween-80) is 92 % of control.
On to `c1ccc2[nH]cnc2c1`, for which the T/C is 100 % of control (dose: 20.0 mg/kg/injection, schedule: Q04DX003 (ip), vehicle: other); 99 % of control (dose: 40.0 mg/kg/injection, schedule: Q04DX003 (ip), vehicle: other); 100 % of control (dose: 40.0 mg/kg/injection, schedule: Q04DX003 (oral), vehicle: other); 98 % of control (dose: 50.0 mg/kg/injection, schedule: Q01DX009 (ip), vehicle: suspension in saline); 95 % of control (dose: 80.0 mg/kg/injection, schedule: Q04DX003 (ip), vehicle: other); 90 % of control (dose: 100.0 mg/kg/injection, schedule: Q01DX009 (ip), vehicle: suspension in saline). The T/C was 100 % of control under setting [8]; 100 % of control (dose: 160.0 mg/kg/injection, schedule: Q04DX003 (ip), vehicle: other); 104 % of control (dose: 160.0 mg/kg/injection, schedule: Q04DX003 (oral), vehicle: other); 106 % of control (dose: 200.0 mg/kg/injection, schedule: Q01DX009 (ip), vehicle: suspension in saline); 100 % of control under setting [9]; 100 % of control (dose: 320.0 mg/kg/injection, schedule: Q04DX003 (ip), vehicle: other). Further, the T/C under setting [10] is 90 % of control.
With `C=CCC(NC(=O)c1ccccc1)C(=O)O` (stereo unspecified), the T/C (dose: 50.0 mg/kg/injection, schedule: Q01DX009 (ip), vehicle: saline with Tween-80) is 100 % of control; the T/C under setting [4] is 98 % of control; the T/C under setting [5] is 95 % of control.
On to `O=C(O)C(Cc1ccc(C(=O)C(F)(F)F)cc1)NC(=O)C(F)(F)F` (stereo unspecified), for which the T/C is, setting by setting: under setting [8], 100 % of control; under setting [9], 103 % of control; under setting [10], 99 % of control.
Consider `C[CH2][Sn]([F])([F])[CH2]C`, for which the T/C reads like this: (dose: 6.25 mg/kg/injection, schedule: Q04DX003 (ip), vehicle: saline) 107 % of control; (dose: 12.5 mg/kg/injection, schedule: Q04DX003 (ip), vehicle: saline) 108 % of control; (dose: 25.0 mg/kg/injection, schedule: Q04DX003 (ip), vehicle: saline) 116 % of control.
`C=C(Cl)C(=NC(C)C)Nc1ccccc1C`: the T/C is 112 % of control (dose: 0.79 mg/kg/injection, schedule: Q01DX005 (ip), vehicle: Klucel (hydroxypropylcellulose) (HPC)); 100 % of control and 107 % of control (dose: 1.56 mg/kg/injection, schedule: Q01DX005 (ip), vehicle: Klucel (hydroxypropylcellulose) (HPC)); 107 % of control and 110 % of control and 115 % of control (dose: 3.12 mg/kg/injection, schedule: Q01DX005 (ip), vehicle: Klucel (hydroxypropylcellulose) (HPC)); 118 % of control and 86 % of control (dose: 6.25 mg/kg/injection, schedule: Q01DX005 (ip), vehicle: Klucel (hydroxypropylcellulose) (HPC)); 102 % of control and 114 % of control (dose: 12.5 mg/kg/injection, schedule: Q01DX005 (ip), vehicle: Klucel (hydroxypropylcellulose) (HPC)).
On to `Cc1nc(-c2ccccc2)nc2c1nc(C(C)C)n2Nc1ccccc1`, for which the T/C is, setting by setting: under setting [6], 96 % of control; under setting [7], 98 % of control.
Taken in the same sequence, the figures for `COc1cc2c(cc1O)CC1c3c(cc(O)c(OC)c3-2)CCN1C` (stereo unspecified) were 98 % of control and 87 % of control.
As to `C[C@@H]1C[C@@H]2OC(=O)[C@]3(C)[C@H]2[C@@H](OC3(C)O)[C@]2(C)C(=O)C=C[C@@H]12` (stereo partly specified), the T/C by setting is: (dose: 4.25 mg/kg/injection, schedule: Q01DX009 (ip), vehicle: Klucel (hydroxypropylcellulose) (HPC)) 104 % of control; (dose: 8.5 mg/kg/injection, schedule: Q01DX009 (ip), vehicle: Klucel (hydroxypropylcellulose) (HPC)) 102 % of control and 109 % of control; (dose: 17.0 mg/kg/injection, schedule: Q01DX009 (ip), vehicle: Klucel (hydroxypropylcellulose) (HPC)) 119 % of control and 120 % of control.
For `CCOC(=O)C(C)NO` (stereo unspecified), the T/C is 97 % of control (dose: 50.0 mg/kg/injection, schedule: Q01DX009 (ip), vehicle: saline) and 94 % of control (dose: 100.0 mg/kg/injection, schedule: Q01DX009 (ip), vehicle: saline).
Consider `C/C(Cl)=C\C(=O)c1c(C)[nH]n(-c2ccccc2)c1=O`, for which the T/C is, setting by setting: (dose: 50.0 mg/kg/injection, schedule: Q01DX005 (ip), vehicle: Klucel (hydroxypropylcellulose) (HPC)) 99 % of control; (dose: 100.0 mg/kg/injection, schedule: Q01DX005 (ip), vehicle: Klucel (hydroxypropylcellulose) (HPC)) 111 % of control.
Consider `C[n+]1c(-c2cccc(OCCCCCCCCCCCCCCCCOc3cccc(-c4c5cc(N)ccc5c5ccc(N)cc5[n+]4C)c3)c2)c2cc(N)ccc2c2ccc(N)cc21`, for which the T/C (dose: 0.39 mg/kg/injection, schedule: Q01DX009 (ip), vehicle: water) is 117 % of control; the T/C (dose: 0.78 mg/kg/injection, schedule: Q01DX009 (ip), vehicle: water) is 117 % of control; the T/C (dose: 1.56 mg/kg/injection, schedule: Q01DX009 (ip), vehicle: water) is 98 % of control and 119 % of control; the T/C (dose: 3.12 mg/kg/injection, schedule: Q01DX009 (ip), vehicle: water) is 113 % of control; the T/C (dose: 6.25 mg/kg/injection, schedule: Q01DX009 (ip), vehicle: water) is 179 % of control.
For the compound `CCC/C=C/C=C\C(=O)O[C@@H]1[C@@H](C)[C@]2(O)[C@@H]3C=C(C)C(=O)[C@H]3CC(COC(C)=O)=C[C@H]2[C@@H]2C(C)(C)[C@]12OC(C)=O`, the T/C was 123 % of control and 92 % of control (dose: 0.38 mg/kg/injection, schedule: Q01DX005 (ip), vehicle: saline + alcohol); 100 % of control (dose: 0.38 mg/kg/injection, schedule: Q01DX005 (ip), vehicle: saline with Tween-80); 105 % of control (dose: 0.75 mg/kg/injection, schedule: Q01DX005 (ip), vehicle: saline with Tween-80); 103 % of control (dose: 1.5 mg/kg/injection, schedule: Q01DX005 (ip), vehicle: saline with Tween-80); 117 % of control (dose: 3.0 mg/kg/injection, schedule: Q01DX005 (ip), vehicle: saline with Tween-80).
For the compound `CC(C)(NC(=O)OC12CC3CC(CC(C3)C1)C2)C(=O)O`, the T/C was 109 % of control (dose: 60.0 mg/kg/injection, schedule: Q01DX005 (ip), vehicle: saline with Tween-80); 104 % of control (dose: 120.0 mg/kg/injection, schedule: Q01DX005 (ip), vehicle: saline with Tween-80); 98 % of control (dose: 240.0 mg/kg/injection, schedule: Q01DX005 (ip), vehicle: saline with Tween-80).
